# Assay results reported in a melting point compilation (Tetko et al.; mined from patent text by program, amines drawn as free bases though some values may be those of a salt).
row,melting point [°C],SMILES
1,130 to 131,C=CCn1cc(Cl)cnc1=O
2,197 to 199,O=C1CCC2(CCC(=O)c3ccccc32)C(=O)N1 (stereo unspecified)
3,360,NS(=O)(=O)c1cccc2c1c([N+](=O)[O-])cc1nc(O)c(O)nc12
4,118 to 121,N#Cc1cccc2c1C(=O)C(OCc1ccccc1)=C(OCc1ccccc1)C2=O
5,161 to 163,CCCCCCN(Cc1ccc2ccccc2n1)C(Nc1cc(C(C)(C)C)c(O)c(C(C)(C)C)c1)=C1C(=O)OC(C)(C)OC1=O
6,102 to 104,CC(C)(O)CCCCc1ccc(C=Cc2ccc(CO)c(CO)c2)cc1
7,194,CCCCNC(=O)c1ccc2c(=O)nc(-c3ccccn3)sc2c1
8,145,CC(=O)c1ccc(S(=O)(=O)NCc2ccccc2-c2ccccc2C(=O)NCCc2ccccc2)cc1
9,132 to 134,COc1ccc(-c2c(Cl)nc(Cl)nc2-c2ccccc2)cc1
10,145 to 147,COc1ccc(C(=O)c2ccc(OCc3nc(-c4ccccc4)sc3C)cc2)c(OC(C)(C)C(=O)O)c1
11,106,CC(=O)SCSCc1cn(C(c2ccccc2)(c2ccccc2)c2ccccc2)nn1
12,74 to 75,COC(=O)CC(=O)NC(C)(C)CC(C)(C)C
13,108,Cc1ccc(S(=O)(=O)N2CCCC2c2cccs2)cc1 (racemic)
14,170 to 172,CCN(CC)c1ccc(F)c2nc3n(c12)CCCN3c1ccc(Cl)cc1Cl
15,155 to 157,N#Cc1ccc(S(=O)(=O)Nc2cccnc2Nc2ccccc2)cc1
16,> 315,O=C1CC(c2coc3ccccc23)=Nc2cc3c(cc21)OCO3
17,205 to 207,CCCCN(CCCC)c1ccc(C=Cc2cc(C)c(C=CC3=C(C#N)C(=C(C#N)C#N)OC3(C)C(F)(F)F)cc2C)c(OC)c1 (stereo unspecified)
18,129 to 130,Cc1oc(-c2ccccc2)nc1COc1cc(COc2ncccc2CC(=O)O)on1
19,80,CCOC(=O)[C@H](CCC1CCCCC1)N[C@@H]1COc2ccccc2N(Cc2ccc(C(C)C)cc2)C1=O
20,132 to 134,O=C1c2ccccc2COc2ccc(Br)cc21
21,73 to 74,O=[N+]([O-])c1ccccc1OC[C@@H](O)CNCCc1ccc(Cl)c(Cl)c1
22,244 to 245,Cc1ccc(C2=C(c3ccc(C)cc3)C(c3ccc(C)cc3)=C(c3ccc(C)cc3)C2=O)cc1
23,106 to 107,Cc1c(-c2ccc(OCc3ccccc3)cc2)n(Cc2ccc(OCCN3[C@H](C)CCC[C@@H]3C)cc2)c2ccc(OCc3ccccc3)cc12

row,melting point [°C],SMILES
1,> 300,Nc1nc2ccccc2c2c1ncn2Cc1ccncc1
2,64.5 to 66,Cc1cc2occc2c(Cl)n1
3,200 to 202,Cc1ccc(Cl)cc1NC(=O)NCC1(c2ccccc2)CCCCC1
4,134,CCCCCCCCS(=O)(=O)CC(CS(=O)(=O)c1ccc(OC)cc1)C(=O)NO (stereo unspecified)
5,236,Nc1ncnc2c1ncn2CCO
6,132 to 133,CC/C=C(\C)CNc1cccc(-c2ccnc3c(C(=O)c4cccs4)cnn23)c1
7,34 to 35,CCCCCCCCCCCCCCOc1ccc(C(=O)OCC)cc1
8,181 to 183,Cc1noc(NS(=O)(=O)c2ccc(Nc3ccc(N)cc3N)cc2)c1C
9,138 to 140,CCC=C1SC(=S)N(CC(=O)O)C1=O
10,97 to 98.5,Cc1ccc(N2CSC(=NCc3ccc(C(F)(F)F)cc3)N(CC(F)(F)F)C2=O)cc1
11,165 to 166,Cc1ccc2cc(CCCc3ccncc3)c(=O)n(-c3cccc([N+](=O)[O-])c3)c2n1
12,157 to 159,CCCn1c(COCC)nc2c(N)nc3ccc(OCCN)cc3c21
13,211 to 213,O=c1[nH]c(=O)n(CCCCN2CCC(OC(c3ccccc3)c3ccccc3)CC2)c2ccc([N+](=O)[O-])cc12
14,141 to 142,CC1(C)CC(=C(c2ccc(O)cc2)c2ccc(C#CCO)cc2)CC(C)(C)C1
15,133 to 135,Cc1ccc(O)c(F)n1
16,228 to 230,Nc1ncc(-c2cccc(Cl)c2Cl)c(Cl)n1
17,119 to 122,COc1cc(N=c2scc(-c3ccc(Cl)c(S(=O)(=O)N(C)C)c3)n2C)cc(OC)c1OC
18,140 to 141,C[C@@H](c1ncncc1F)[C@@](Cn1cncn1)(OP(=O)(OCc1c(F)cccc1Cl)OCc1c(F)cccc1Cl)c1ccc(F)cc1F
19,122 to 124,CCN(C)c1ccc(C(=O)c2ccc(N(C)CC)cc2)cc1
20,121 to 133,COc1ccc(/C=C/c2cc(/C=C/c3ccc4cc[nH]c4c3)[nH]n2)c(OC)c1
21,213 to 215,N#Cc1cn(C2CC2)c2c(F)c(F)c(F)cc2c1=O
22,52 to 54,Cc1cc(C)cc(C(=O)N2CCN(C(=O)CNC3CCN(CCCc4ccccc4)CC3)C(c3ccc(Cl)c(Cl)c3)C2)c1 (racemic)
23,165 to 167,Cn1ncnc1COc1nc2c(cc1C(C)(C)C)nnn2-c1ccccc1

row,melting point [°C],SMILES
1,130 to 132,O=C(O)COc1cccc2c1CCC(Cc1nc(C(c3ccccc3)c3ccccc3)co1)C2 (stereo unspecified)
2,134 to 135,CNC(=O)C(=O)CCCCCCS(=O)(=O)c1ccc(-c2ccccc2)cc1
3,115 to 116,CCC(CC)N(O)C(=O)Nc1cc(C(F)(F)F)cc(C(F)(F)F)c1
4,266 to 269,CN1CCN(c2c(F)cc3c(=O)c(C(=O)O)cn4c3c2N(C)CC4)CC1
5,177,CC(C)c1ccc(C(=O)Cl)cc1S(N)(=O)=O
6,130 to 132,CNC(=O)N1CC(Oc2ccccc2Cl)C1
7,> 270,N[C@@]1(C(=O)O)C[C@H](NC(=O)Nc2ccccc2F)[C@H]2[C@H](C(=O)O)[C@H]21 (relative stereo)
8,205 to 207,O=C(NC(Cc1cccc(C(F)(F)F)c1)C(=O)N1CCSC1)c1cc2cc(Cl)ccc2[nH]1 (stereo unspecified)
9,128 to 131,CC(=O)C(=NNc1cccc(Cl)c1)Sc1ccc(Cl)cc1
10,224 to 226,Oc1ccc(-c2ccc(O)c3cc(O)c(O)cc23)cc1O
11,158,N#Cc1nn(-c2c(Cl)cc(Cl)cc2Cl)cc1C1CC1(Cl)Cl (stereo unspecified)
12,63 to 65,O=Cc1c(Cl)ccc(F)c1Cl
13,84 to 87,CC(=O)c1ccc(-c2cccc(-c3nc(C(C)C)[nH]c3-c3cccc(C)n3)c2)cc1
14,172 to 173,CN1C(=O)C=C[C@]2(C)c3ccc(-c4cccc5ccccc45)cc3CC[C@@H]12
15,176 to 177,Cc1ccc(C(=O)c2ccc(OCC(=O)O)c(Cl)c2Cl)cc1
16,166 to 168,C=CCN1CCC2(CC1)CSC1=C(O2)c2ccccc2C(=O)C1=O
17,174 to 176,CCC(C#N)=C1CCN(c2ccc(N3C[C@H](CNC(C)=S)OC3=O)cc2F)CC1
18,120 to 122,CCS(=O)(=O)Nc1cc(-n2nc3ccc(Cl)cn3c2=O)c(F)cc1Cl
19,149 to 150,CC(=O)NC1(c2ccc(C(C)N3CCN(c4ccc(F)cc4)CC3)cc2)CC1 (stereo unspecified)
20,275 to 277,CCN(CC)C1=NC(=O)C(=Cc2cccc(-c3ccc(O)c(C45CC6CC(CC(C6)C4)C5)c3)c2)S1
21,108 to 111,CNC(=S)C1(c2cnc3ccccc3c2)CCCCC1=CC#N (stereo unspecified)
22,> 220,Cc1ccc(Cc2nc3cc(-c4ccc(-c5ccccc5)cc4)c(Cl)cc3[nH]2)cc1P(=O)(O)O
23,63 to 64,COC(=O)C=NOCC(=O)C=CN(C)C

row,melting point [°C],SMILES
1,271 to 273,Cc1nc(O)c2c(n1)N(c1c(C)cc(Br)cc1C)C(=O)C2C (stereo unspecified)
2,195 to 198,CCCCN(CCCC)c1ccc(C=C2C(=C(C#N)C#N)c3ccccc3C2=C(C#N)C#N)c(OC)c1
3,197 to 200,C(=CCN1C(c2ccccc2)CCCC1c1ccccc1)CN1C(c2ccccc2)CCCC1c1ccccc1 (stereo unspecified)
4,160 to 162,COc1ccc(OC)c2c1C[C@](O)(CC#N)CC2=O
5,221 to 223,O=C1CC(c2ccccc2)C(c2ccccc2)=NN1 (stereo unspecified)
6,150 to 152,CC(C)(C)OC(=O)NC1CCCCCC=CC2CC2(C(=O)NS(=O)(=O)C2CC2)NC(=O)C2CC(OC(=O)c3cnccn3)CN2C1=O (stereo unspecified)
7,63 to 89,Cn1nc2c(-c3ccc(Cl)cc3Cl)cccc2c1-n1ccnc1
8,65 to 67,CCOCn1c(Br)c(Br)c(C#N)c1C(F)(F)F
9,145 to 148,CS(=O)(=O)Nc1cccc(Nc2nc(NCc3ccccc3CO)c3nc[nH]c3n2)c1
10,96,CC1CCCC(C)C1=CC1C(C(=O)O)C1(C)C (stereo unspecified)
11,195 to 196,Nc1cc(=O)n(Cc2cc(Cl)ccc2Cl)[nH]1
12,98 to 101,COC(=O)C=C1NCC(C)OC1=O (stereo unspecified)
13,190 to 193,CON1C=C2N=NC3=C(N2C1)N(c1ccccc1Cl)CC=C3
14,161 to 162,ClCc1ccc2c(c1)Nc1nccnc1S2
15,255 to 257,Cc1c(F)c(F)cc2c1c(=O)c(C(=O)O)cn2-c1ccc(F)cc1
16,138,CCCc1c(-c2cc(=O)c3c(O)cc(OCC(=O)OCC)cc3o2)ccc(OC)c1O
17,196 to 197,COc1ccc2c(c1)CC(C(N)=O)N2C(C)=O (stereo unspecified)
18,236,CCCc1c(C(=O)O)c(C(F)F)nc(C(F)(F)F)c1C(=O)O
19,180 to 182,COC(=O)C1(CC(N)=O)C(=O)N(Cc2ccc(Br)cc2F)C(=O)c2ccccc21 (stereo unspecified)
20,106 to 108,COc1ccc(Cc2cc(CCNS(=O)(=O)c3ccc(Cl)cc3)cc(CCC(=O)O)c2)cc1
21,200,CCC(Oc1ccc2nc(NC(=O)NCCN3CCOCC3)sc2c1)c1c(Cl)cccc1Cl (stereo unspecified)
22,160 to 163,O=C1CN(C(c2ccccc2)c2ccccc2)N1

row,SMILES,melting point [°C]
1,CC12CCC(=O)C=C1CCC1C2CCC2(C)C(OC(=O)CBr)CCC12 (stereo unspecified),144 to 145
2,O=[N+]([O-])c1ccc(-c2nc(-c3ccc([N+](=O)[O-])cc3)c(-c3ccc([N+](=O)[O-])cc3)[nH]2)cc1,320 to 322
3,CCN1C(=O)CN=C(c2ccccc2F)c2cc(C(C)=NO)ccc21,236 to 238
4,CC(C)OC(=O)c1ncn2c1[C@@H]1CCCN1C(=O)c1ccccc1-2,207 to 208
5,Cc1ccc2c3c(ccc2n1)OCC(CN1C2CCC1CC(O)(c1ccccc1)C2)O3 (stereo unspecified),162 to 165
